Where “and” joins values, the source holds several entries; their conditions need not be identical. Equal entries are not always repeated. Inconclusive results and toxic doses are left out. Rule for the calls: active = survival T/C of 150% or more; inactive = T/C below 125% in these data.
Tested on: CD2F1 mice, L1210 leukemia ip, survival T/C
Assay: NCI In Vivo Anticancer Drug Screen. Data for tumor model L1210 Leukemia (intraperitoneal) in CD2F1 (CDF1) mice
Settings: higher = longer survival
Procedure, shortened: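 Antitumor effect is scored in animals hosting a serially transplanted tumor. Values compare compound-dosed animals against vehicle-only controls as a simple quotient.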

[1] = endpoint: mean survival time, dose: 100.0 mg/kg/injection, schedule: Q01DX009 (ip), vehicle: saline with Tween-80
[2] = endpoint: mean survival time, dose: 200.0 mg/kg/injection, schedule: Q01DX009 (ip), vehicle: saline with Tween-80
[3] = endpoint: mean survival time, dose: 400.0 mg/kg/injection, schedule: Q01DX009 (ip), vehicle: saline with Tween-80
[4] = endpoint: mean survival time, dose: 100.0 mg/kg/injection, schedule: Q04DX003 (ip), vehicle: saline with Tween-80
[5] = endpoint: mean survival time, dose: 200.0 mg/kg/injection, schedule: Q04DX003 (ip), vehicle: saline with Tween-80
[6] = endpoint: mean survival time, dose: 400.0 mg/kg/injection, schedule: Q04DX003 (ip), vehicle: saline with Tween-80
[7] = endpoint: mean survival time, dose: 100.0 mg/kg/injection, schedule: Q04DX003 (ip), vehicle: Klucel (hydroxypropylcellulose) (HPC)
[8] = endpoint: mean survival time, dose: 50.0 mg/kg/injection, schedule: Q01DX009 (ip), vehicle: saline with Tween-80

Measured: T/C

CNP1(=O)OC(c2ccccc2)=CCN1CCCl (centres undefined)
inactive: endpoint: median survival time, dose: 31.25 mg/kg/injection, schedule: Q01DX001 (ip), vehicle: distilled water + Tween-80 102 % of control | endpoint: median survival time, dose: 62.5 mg/kg/injection, schedule: Q01DX001 (ip), vehicle: distilled water + Tween-80 106 % of control | endpoint: median survival time, dose: 125.0 mg/kg/injection, schedule: Q01DX001 (ip), vehicle: distilled water + Tween-80 96 % of control | endpoint: median survival time, dose: 250.0 mg/kg/injection, schedule: Q01DX001 (ip), vehicle: distilled water + Tween-80 96 % of control

CCc1ccc(C(=O)CCCCl)cc1
inactive: [1] 104 % of control | [2] 100 % of control | [3] 100 % of control

O=C(O)CS(=O)(=O)c1ccccc1
inactive: endpoint: mean survival time, dose: 50.0 mg/kg/injection, schedule: Q01DX009 (ip), vehicle: saline 86 % of control | endpoint: mean survival time, dose: 100.0 mg/kg/injection, schedule: Q01DX009 (ip), vehicle: saline 89 % of control

COc1ccc(C(O)(c2ccccc2)C(OC(=O)c2cc([N+](=O)[O-])cc([N+](=O)[O-])c2)c2ccccc2)cc1 (centres undefined)
inactive: endpoint: mean survival time, dose: 100.0 mg/kg/injection, schedule: Q01DX001 (ip), vehicle: saline with Tween-80 87 % of control | endpoint: mean survival time, dose: 200.0 mg/kg/injection, schedule: Q01DX001 (ip), vehicle: saline with Tween-80 94 % of control | endpoint: mean survival time, dose: 400.0 mg/kg/injection, schedule: Q01DX001 (ip), vehicle: saline with Tween-80 91 % of control

C=CCNC(=O)/C(=C\c1ccccc1)NC(C)=O
inactive: [1] 96 % of control | [4] 98 % of control | [2] 98 % of control | [5] 100 % of control | [3] 95 % of control | [6] 100 % of control

CCC(=O)c1ccc2c(c1)N(CCCN1CCN(CCO)CC1)c1ccccc1S2
inactive: endpoint: mean survival time, dose: 25.0 mg/kg/injection, schedule: Q04DX003 (ip), vehicle: Klucel (hydroxypropylcellulose) (HPC) 97 % of control | [7] 116 % of control

CN(C)N1C(=O)c2ccccc2C1=O
inactive: endpoint: mean survival time, dose: 100.0 mg/kg/injection, schedule: Q04DX003 (ip), vehicle: other 96 % of control | endpoint: mean survival time, dose: 200.0 mg/kg/injection, schedule: Q04DX003 (ip), vehicle: other 104 % of control | endpoint: mean survival time, dose: 400.0 mg/kg/injection, schedule: Q04DX003 (ip), vehicle: other 98 % of control

O=C(O)c1c2ccccc2cc2ccccc12
inactive: [7] 101 % of control | endpoint: mean survival time, dose: 200.0 mg/kg/injection, schedule: Q04DX003 (ip), vehicle: Klucel (hydroxypropylcellulose) (HPC) 95 % of control | endpoint: mean survival time, dose: 400.0 mg/kg/injection, schedule: Q04DX003 (ip), vehicle: Klucel (hydroxypropylcellulose) (HPC) 90 % of control

Brc1ccc(Sc2ccccc2)cc1
inactive: [1] 98 % of control | [2] 93 % of control | [3] 96 % of control

CN(C)c1ccc(C(=C(c2ccc(N(C)C)cc2)c2ccc(N(C)C)cc2)c2ccc(N(C)C)cc2)cc1
inactive: endpoint: mean survival time, dose: 75.0 mg/kg/injection, schedule: Q01DX001 (ip), vehicle: saline 106 % of control

CNC(=O)Nc1cccc(OS(=O)(=O)N(C)C)c1
inactive: [1] 92 % of control | [2] 95 % of control | [3] 95 % of control

CCN1C=C/C(=C/c2cc3scc(-c4ccccc4)[n+]3c3ccccc23)c2ccccc21
inactive: endpoint: mean survival time, dose: 0.01 mg/kg/injection, schedule: Q01DX009 (ip), vehicle: saline 97 % of control | endpoint: mean survival time, dose: 0.02 mg/kg/injection, schedule: Q01DX009 (ip), vehicle: saline 100 % of control | endpoint: mean survival time, dose: 0.04 mg/kg/injection, schedule: Q01DX009 (ip), vehicle: saline 103 % of control

O=C(O)C(Br)C(Br)c1ccccc1 (centres undefined)
inactive: [1] 92 % of control | [2] 93 % of control | [3] 93 % of control

CCOC(=O)Nc1cccc([N+](=O)[O-])c1
inactive: endpoint: mean survival time, dose: 100.0 mg/kg/injection, schedule: Q01DX009 (ip), vehicle: other 98 % of control | endpoint: mean survival time, dose: 200.0 mg/kg/injection, schedule: Q01DX009 (ip), vehicle: other 113 % of control

CSc1nc(NN)n2nccc2n1
inactive: endpoint: median survival time, dose: 50.0 mg/kg/injection, schedule: Q01DX005 (ip), vehicle: saline 104 % of control | endpoint: median survival time, dose: 100.0 mg/kg/injection, schedule: Q01DX005 (ip), vehicle: saline 103 % of control

O=P1(O)c2ccccc2Nc2ccccc21
inactive: endpoint: mean survival time, dose: 50.0 mg/kg/injection, schedule: Q01DX009 (ip), vehicle: Klucel (hydroxypropylcellulose) (HPC) 104 % of control | endpoint: mean survival time, dose: 100.0 mg/kg/injection, schedule: Q01DX009 (ip), vehicle: Klucel (hydroxypropylcellulose) (HPC) 93 % of control | endpoint: mean survival time, dose: 200.0 mg/kg/injection, schedule: Q01DX009 (ip), vehicle: Klucel (hydroxypropylcellulose) (HPC) 108 % of control

Cc1n[nH]c2ccc(Br)cc2c1=O
inactive: [8] 97 % of control | [1] 91 % of control | [4] 101 % of control | [2] 101 % of control | [5] 87 % of control

CC1SC(C(C)(C)C)SC(C)C1C(C)(C)C (centres undefined)
inactive: endpoint: mean survival time, dose: 12.5 mg/kg/injection, schedule: Q04DX002 (ip), vehicle: saline with Tween-80 102 % of control | endpoint: mean survival time, dose: 25.0 mg/kg/injection, schedule: Q04DX002 (ip), vehicle: saline with Tween-80 102 % of control | endpoint: mean survival time, dose: 50.0 mg/kg/injection, schedule: Q04DX002 (ip), vehicle: saline with Tween-80 102 % of control

CCN(CC)CCNC(=O)C(O)C1CCCCC1 (centres undefined)
inactive: endpoint: mean survival time, dose: 75.0 mg/kg/injection, schedule: Q01DX001 (ip), vehicle: other 90 % of control

N=c1nc2c3ccccc3nnn2c2ccccc12
inactive: endpoint: mean survival time, dose: 50.0 mg/kg/injection, schedule: Q01DX001 (ip), vehicle: Klucel (hydroxypropylcellulose) (HPC) 101 % of control | endpoint: mean survival time, dose: 100.0 mg/kg/injection, schedule: Q01DX001 (ip), vehicle: Klucel (hydroxypropylcellulose) (HPC) 112 % of control

CN(C)c1ccc(/C=C/c2cc[n+](C)cc2)cc1
inactive: endpoint: mean survival time, dose: 4.0 mg/kg/injection, schedule: Q01DX009 (ip), vehicle: saline 97 % of control | endpoint: mean survival time, dose: 8.0 mg/kg/injection, schedule: Q01DX009 (ip), vehicle: saline 94 % of control

Cn1c(=O)c2c(ncn2-c2ccncc2)n(C)c1=O
inactive: endpoint: mean survival time, dose: 12.5 mg/kg/injection, schedule: Q01DX005 (ip), vehicle: saline with Tween-80 93 % of control | endpoint: mean survival time, dose: 25.0 mg/kg/injection, schedule: Q01DX005 (ip), vehicle: saline with Tween-80 98 % of control | endpoint: mean survival time, dose: 50.0 mg/kg/injection, schedule: Q01DX005 (ip), vehicle: saline with Tween-80 96 % of control | endpoint: mean survival time, dose: 100.0 mg/kg/injection, schedule: Q01DX005 (ip), vehicle: saline with Tween-80 104 % of control

Cc1ccc(NC(=O)Nc2ccccc2C(N)=O)cc1C
inactive: endpoint: mean survival time, dose: 12.5 mg/kg/injection, schedule: Q01DX009 (ip), vehicle: saline with Tween-80 95 % of control | endpoint: mean survival time, dose: 25.0 mg/kg/injection, schedule: Q01DX009 (ip), vehicle: saline with Tween-80 102 % of control | [8] 95 % of control | [1] 92 % of control | [2] 92 % of control

CCOC(=O)Nc1ccc(C(=O)O)c(O)c1
inactive: [4] 96 % of control | [5] 96 % of control | [6] 100 % of control

CN(C)N=Nc1ccc(SC#N)cc1C(N)=O
inactive: endpoint: mean survival time, dose: 18.8 mg/kg/injection, schedule: Q01DX009 (ip), vehicle: Klucel (hydroxypropylcellulose) (HPC) 93 % of control and 103 % of control | endpoint: mean survival time, dose: 37.5 mg/kg/injection, schedule: Q01DX009 (ip), vehicle: Klucel (hydroxypropylcellulose) (HPC) 97 % of control and 106 % of control | endpoint: mean survival time, dose: 75.0 mg/kg/injection, schedule: Q01DX009 (ip), vehicle: Klucel (hydroxypropylcellulose) (HPC) 107 % of control and 108 % of control | endpoint: mean survival time, dose: 150.0 mg/kg/injection, schedule: Q01DX009 (ip), vehicle: Klucel (hydroxypropylcellulose) (HPC) 88 % of control and 110 % of control

O=C(CC(=O)c1ccccc1)c1ccccc1.O=C(CC(=O)c1ccccc1)c1ccccc1.[Pd]
inactive: endpoint: mean survival time, dose: 3.13 mg/kg/injection, schedule: Q04DX003 (ip), vehicle: distilled water + Tween-80 96 % of control | endpoint: mean survival time, dose: 6.25 mg/kg/injection, schedule: Q04DX003 (ip), vehicle: distilled water + Tween-80 98 % of control | endpoint: mean survival time, dose: 12.5 mg/kg/injection, schedule: Q04DX003 (ip), vehicle: distilled water + Tween-80 94 % of control | endpoint: mean survival time, dose: 25.0 mg/kg/injection, schedule: Q04DX003 (ip), vehicle: distilled water + Tween-80 98 % of control | endpoint: mean survival time, dose: 50.0 mg/kg/injection, schedule: Q04DX003 (ip), vehicle: distilled water + Tween-80 93 % of control | endpoint: mean survival time, dose: 100.0 mg/kg/injection, schedule: Q04DX003 (ip), vehicle: distilled water + Tween-80 89 % of control | endpoint: mean survival time, dose: 200.0 mg/kg/injection, schedule: Q04DX003 (ip), vehicle: distilled water + Tween-80 107 % of control

CN(C)C(=O)OCC#CCOC(=O)N(C)C
inactive: endpoint: mean survival time, dose: 100.0 mg/kg/injection, schedule: Q04DX002 (ip), vehicle: saline 101 % of control | endpoint: mean survival time, dose: 200.0 mg/kg/injection, schedule: Q04DX002 (ip), vehicle: saline 86 % of control
